The target of assay [1] is T1, Cannabinoid receptor 2 (Homo sapiens, UniProt P34972). As to the kind of experiment: SAR analysis of agonists of the Cannabinoid Receptor 2 using an Image-Based Assay - Set 3. [Related pubchem assays (depositor defined):AID2013, AID2026]. The class given is functional.
Assay [2] concerns the target T2, Cannabinoid receptor 1 (Homo sapiens, UniProt P21554). In words: SAR analysis of agonists of the Cannabinoid Receptor 1 using an Image-Based Assay - Set 4. [Related pubchem assays (depositor defined):AID2013, AID2026]. The class given is functional.
In assay [3] the target is T3, G-protein coupled receptor 35 (Homo sapiens, UniProt Q9HC97). In words: SAR analysis of Antagonists of the GPR35 Receptor using an Image-Based Assay - Set 6. [Related pubchem assays (depositor defined):AID2013, AID2026]. The class given is functional.
T3 sequence (Q9HC97 whole entry): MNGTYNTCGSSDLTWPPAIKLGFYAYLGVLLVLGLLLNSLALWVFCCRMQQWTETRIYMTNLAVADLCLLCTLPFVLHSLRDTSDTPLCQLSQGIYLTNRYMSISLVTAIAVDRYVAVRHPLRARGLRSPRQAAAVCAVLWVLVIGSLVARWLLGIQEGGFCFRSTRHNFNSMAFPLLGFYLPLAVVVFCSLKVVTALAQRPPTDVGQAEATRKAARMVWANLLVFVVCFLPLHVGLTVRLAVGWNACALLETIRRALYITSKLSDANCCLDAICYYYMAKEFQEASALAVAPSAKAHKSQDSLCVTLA
Assay [4] addresses G-protein coupled receptor 55 (Homo sapiens, UniProt Q9Y2T6). As to the kind of experiment: SAR Analysis of Selective Antagonists of GPR55 using an Image-Based Assay - Set 4. [Related pubchem assays (depositor defined):AID2013, AID2026]. The class given is functional.
Assay [5] addresses T2, Cannabinoid receptor 1. In words: SAR analysis of antagonists of the Cannabinoid Receptor 1 using an Image-Based Assay - Set 4. [Related pubchem assays (depositor defined):AID2013, AID2026]. The class given is functional.
Assay [6] addresses T1, Cannabinoid receptor 2. In words: SAR analysis of antagonists of the Cannabinoid Receptor 2 using an Image-Based Assay - Set 3. [Related pubchem assays (depositor defined):AID2013, AID2026]. The class given is functional.
The target in assay [7] is T3, G-protein coupled receptor 35. As to the kind of experiment: SAR analysis of Agonists of the GPR35 Receptor using an Image-Based Assay - Set 4. [Related pubchem assays (depositor defined):AID2013, AID2026]. The class given is functional.
In assay [8] the target is T4, Kappa-type opioid receptor (Homo sapiens, UniProt P41145). As to the kind of experiment: SAR analysis of small molecule agonists of the kappa opioid receptor via a luminescent beta-arrestin assay - Set 3. [Related pubchem assays (depositor defined):AID1777, AID1785, AID1786, AID1966, AID2133, AID2136, AID2284, AID2500]. The class given is functional.
T4 sequence (P41145 whole entry): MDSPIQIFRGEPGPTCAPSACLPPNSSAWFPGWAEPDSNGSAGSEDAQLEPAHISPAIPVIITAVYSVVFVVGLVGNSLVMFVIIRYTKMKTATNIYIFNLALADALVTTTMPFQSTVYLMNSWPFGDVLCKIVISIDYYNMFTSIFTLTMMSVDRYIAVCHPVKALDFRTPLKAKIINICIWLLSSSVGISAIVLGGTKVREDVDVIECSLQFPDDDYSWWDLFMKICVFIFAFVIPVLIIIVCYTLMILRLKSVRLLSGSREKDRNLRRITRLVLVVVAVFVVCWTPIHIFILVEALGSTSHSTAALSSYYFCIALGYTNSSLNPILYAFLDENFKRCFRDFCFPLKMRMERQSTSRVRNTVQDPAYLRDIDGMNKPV
A further assay concerns the target Troponin, cardiac muscle (Homo sapiens, UniProt P19429+P45379+P63316). In words: Fluorescence-based biochemical high throughput dose response assay for activators of the calcium sensitivity of cardiac Regulated Thin Filaments (RTF). [Related pubchem assays (depositor defined):AID493008, AID493018, AID504382, AID504383]. The class given is protein-complex assay.

The target in the next assay is Mu-type opioid receptor (Homo sapiens, UniProt P35372). In words: HTS Image-Based Screen for Agonists of the MOR Receptor. [Related pubchem assays (depositor defined):AID1777, AID1785, AID1786, AID2133]. The class given is functional.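 Further: imaging of beta-arrestin GFP recruitment into spots after receptor activation.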
The next assay deals with Beta-galactosidase (Escherichia coli, UniProt Q8VNN2). The class given is functional.
Assay [9] deals with T5, Delta-type opioid receptor (Homo sapiens, UniProt P41143). As to the kind of experiment: HTS Image-Based Screen for Agonists of the DOR Receptor. [Related pubchem assays (depositor defined):AID1777, AID1786, AID2133]. The class given is functional.
The target in assay [10] is T5, Delta-type opioid receptor. As to the kind of experiment: HTS Image-Based Screen for Antagonists of the DOR Receptor. [Related pubchem assays (depositor defined):AID1777, AID1785, AID1786, AID2133]. The class given is functional.
Assay [11] concerns the target T4, Kappa-type opioid receptor. The class given is functional.
In assay [12] the target is T4, Kappa-type opioid receptor. The class given is functional. This is another data set of the same source.
The target in assay [13] is T6, Tyrosine-protein phosphatase non-receptor type 22 (Homo sapiens, UniProt Q9Y2R2).
T6 sequence (Q9Y2R2 whole entry): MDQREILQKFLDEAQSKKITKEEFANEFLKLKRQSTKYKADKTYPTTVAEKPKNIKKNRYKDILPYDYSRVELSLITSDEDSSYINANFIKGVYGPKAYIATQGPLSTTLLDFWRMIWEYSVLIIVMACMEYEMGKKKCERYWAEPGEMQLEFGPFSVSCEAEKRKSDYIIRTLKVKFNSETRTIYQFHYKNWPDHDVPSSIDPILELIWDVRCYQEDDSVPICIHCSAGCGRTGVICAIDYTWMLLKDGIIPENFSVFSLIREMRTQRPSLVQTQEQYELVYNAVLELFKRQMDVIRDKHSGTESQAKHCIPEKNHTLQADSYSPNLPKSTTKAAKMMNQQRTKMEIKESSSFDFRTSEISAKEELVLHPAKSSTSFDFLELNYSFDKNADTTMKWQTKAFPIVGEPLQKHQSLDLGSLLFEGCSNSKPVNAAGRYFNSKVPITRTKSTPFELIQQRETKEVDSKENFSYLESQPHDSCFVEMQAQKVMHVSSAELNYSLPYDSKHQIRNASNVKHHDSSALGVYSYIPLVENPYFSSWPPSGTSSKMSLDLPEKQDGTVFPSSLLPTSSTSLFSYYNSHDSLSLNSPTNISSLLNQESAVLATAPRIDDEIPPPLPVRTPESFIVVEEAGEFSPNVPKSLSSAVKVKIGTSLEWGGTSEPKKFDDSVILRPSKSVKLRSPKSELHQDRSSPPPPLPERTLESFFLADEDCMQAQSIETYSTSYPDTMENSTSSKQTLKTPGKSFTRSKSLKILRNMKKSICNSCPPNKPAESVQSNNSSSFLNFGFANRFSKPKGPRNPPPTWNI
The class given is functional.

Assay [14] concerns the target 72 kDa type IV collagenase (Homo sapiens, UniProt P08253). In words: Dose Response validation of uHTS RPN11 inhibitor hits using a MMP-2 Fluorescence assay. The class given is functional.
The target in assay [15] is T7, Small ubiquitin-related modifier 1 (Homo sapiens, UniProt P63165). In words: SUMO1 protein-protein binding blockers, potency – biochemical, FRET, dose response (AID 624383). The class given is functional. Particulars: read-out: IC50_Mean.
T7 sequence (P63165 whole entry): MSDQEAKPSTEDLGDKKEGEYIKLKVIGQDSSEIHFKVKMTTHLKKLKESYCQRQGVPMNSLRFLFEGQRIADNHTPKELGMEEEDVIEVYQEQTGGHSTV
In assay [16] the target is T6, Tyrosine-protein phosphatase non-receptor type 22. The class given is functional. This is another data set of the same source.
Assay [17] has as its target T8, Dual specificity protein phosphatase 3 (Homo sapiens, UniProt P51452). As to the kind of experiment: VHR1 phosphatase inhibitors, biochemical (AID 1878).
In assay [18] the target is T8, Dual specificity protein phosphatase 3. In words: VHR1 phosphatase inhibitors, primary screen, biochemical, absorbance, uHTS (AID 1654).
The target of assay [19] is T9, Dual specificity protein phosphatase 6 (Rattus norvegicus, UniProt Q64346).
T9 sequence (Q64346 whole entry): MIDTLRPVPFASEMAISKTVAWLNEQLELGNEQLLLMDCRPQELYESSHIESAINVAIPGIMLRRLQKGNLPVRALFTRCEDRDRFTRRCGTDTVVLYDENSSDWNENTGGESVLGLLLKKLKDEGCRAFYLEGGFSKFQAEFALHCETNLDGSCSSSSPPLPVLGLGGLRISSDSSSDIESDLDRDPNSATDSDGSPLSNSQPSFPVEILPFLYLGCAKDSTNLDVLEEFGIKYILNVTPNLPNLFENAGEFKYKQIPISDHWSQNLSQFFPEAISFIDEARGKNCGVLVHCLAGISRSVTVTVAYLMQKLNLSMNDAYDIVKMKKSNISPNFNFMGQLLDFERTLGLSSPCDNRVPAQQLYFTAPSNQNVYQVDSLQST
The class given is functional.

Assay [20] concerns the target T10, Tyrosine-protein phosphatase non-receptor type 7 (Homo sapiens, UniProt P35236).
T10 sequence (P35236 whole entry): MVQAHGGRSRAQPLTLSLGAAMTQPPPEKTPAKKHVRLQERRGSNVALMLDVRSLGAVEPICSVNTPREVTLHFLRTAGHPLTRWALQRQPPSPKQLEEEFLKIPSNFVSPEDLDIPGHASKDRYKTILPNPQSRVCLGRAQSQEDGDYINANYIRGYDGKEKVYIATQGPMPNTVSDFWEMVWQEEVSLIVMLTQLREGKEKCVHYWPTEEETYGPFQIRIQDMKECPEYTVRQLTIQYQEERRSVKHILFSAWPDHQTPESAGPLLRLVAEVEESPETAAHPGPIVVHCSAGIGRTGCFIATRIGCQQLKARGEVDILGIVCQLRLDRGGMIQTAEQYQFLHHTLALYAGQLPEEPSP
The class given is functional.

In assay [21] the target is Induced myeloid leukemia cell differentiation protein Mcl-1 (Homo sapiens, UniProt Q07820). The class given is functional.
The target of assay [22] is T8, Dual specificity protein phosphatase 3. As to the kind of experiment: SAR VHR1 Fluorescent Assay for In Vitro dose response studies. [Related pubchem assays (depositor defined):AID1654, AID1661, AID1878, AID1992, AID2004, AID2070, AID2085]. The class given is functional.
Assay [23] shares this target. As to the kind of experiment: SAR VHR1 absorbance Assay for In Vitro dose response studies. [Related pubchem assays (depositor defined):AID1654, AID1661, AID1878, AID1992, AID2004].
Another assay deals with Prothrombin (Bos taurus, UniProt P00735). In words: thrombin protease inhibitors – biochemical, fluorescence polarization, uHTS hits, dose response (AID 602369). The class given is functional. (Polarisation of emitted light reports the rotation of a fluorescent probe.)
The target in assay [24] is T8, Dual specificity protein phosphatase 3. As to the kind of experiment: SAR VHR1 Fluorescent Assay for In Vitro dose response studies Set 2. [Related pubchem assays (depositor defined):AID1654, AID1661, AID1878]. The class given is functional.
In assay [25] the target is T7, Small ubiquitin-related modifier 1. In words: SUMO1 protein interaction blockers, potency – biochemical, fluorescence polarization, uHTS hits, dose response (AID 624382). The class given is functional. The conditions noted are these: read-out: IC50_Mean.
In assay [26] the target is T10, Tyrosine-protein phosphatase non-receptor type 7. In words: redox-active compounds inhibiting HePTP phosphatase – biochemical, fluorescence, mechanism study (AID 2068). The class given is functional.
Assay [27] has as its target Eukaryotic translation initiation factor 4E (Mus musculus, UniProt P63073). As to the kind of experiment: blockers of eIF4G binding by eIF4E – biochemical, TR-FRET, dose response (AID 855).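 Further: potency for disrupting eIF4E binding to eIF4GI seen as loss of FRET.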 The class given is functional.
The target of assay [28] is T11, Voltage-gated N-type calcium channel alpha-1B subunit/Amyloid beta A4 precursor protein-binding family A member 1 (Homo sapiens, UniProt Q00975+Q02410). The class given is protein assay.
T11 sequence (Q00975 whole entry): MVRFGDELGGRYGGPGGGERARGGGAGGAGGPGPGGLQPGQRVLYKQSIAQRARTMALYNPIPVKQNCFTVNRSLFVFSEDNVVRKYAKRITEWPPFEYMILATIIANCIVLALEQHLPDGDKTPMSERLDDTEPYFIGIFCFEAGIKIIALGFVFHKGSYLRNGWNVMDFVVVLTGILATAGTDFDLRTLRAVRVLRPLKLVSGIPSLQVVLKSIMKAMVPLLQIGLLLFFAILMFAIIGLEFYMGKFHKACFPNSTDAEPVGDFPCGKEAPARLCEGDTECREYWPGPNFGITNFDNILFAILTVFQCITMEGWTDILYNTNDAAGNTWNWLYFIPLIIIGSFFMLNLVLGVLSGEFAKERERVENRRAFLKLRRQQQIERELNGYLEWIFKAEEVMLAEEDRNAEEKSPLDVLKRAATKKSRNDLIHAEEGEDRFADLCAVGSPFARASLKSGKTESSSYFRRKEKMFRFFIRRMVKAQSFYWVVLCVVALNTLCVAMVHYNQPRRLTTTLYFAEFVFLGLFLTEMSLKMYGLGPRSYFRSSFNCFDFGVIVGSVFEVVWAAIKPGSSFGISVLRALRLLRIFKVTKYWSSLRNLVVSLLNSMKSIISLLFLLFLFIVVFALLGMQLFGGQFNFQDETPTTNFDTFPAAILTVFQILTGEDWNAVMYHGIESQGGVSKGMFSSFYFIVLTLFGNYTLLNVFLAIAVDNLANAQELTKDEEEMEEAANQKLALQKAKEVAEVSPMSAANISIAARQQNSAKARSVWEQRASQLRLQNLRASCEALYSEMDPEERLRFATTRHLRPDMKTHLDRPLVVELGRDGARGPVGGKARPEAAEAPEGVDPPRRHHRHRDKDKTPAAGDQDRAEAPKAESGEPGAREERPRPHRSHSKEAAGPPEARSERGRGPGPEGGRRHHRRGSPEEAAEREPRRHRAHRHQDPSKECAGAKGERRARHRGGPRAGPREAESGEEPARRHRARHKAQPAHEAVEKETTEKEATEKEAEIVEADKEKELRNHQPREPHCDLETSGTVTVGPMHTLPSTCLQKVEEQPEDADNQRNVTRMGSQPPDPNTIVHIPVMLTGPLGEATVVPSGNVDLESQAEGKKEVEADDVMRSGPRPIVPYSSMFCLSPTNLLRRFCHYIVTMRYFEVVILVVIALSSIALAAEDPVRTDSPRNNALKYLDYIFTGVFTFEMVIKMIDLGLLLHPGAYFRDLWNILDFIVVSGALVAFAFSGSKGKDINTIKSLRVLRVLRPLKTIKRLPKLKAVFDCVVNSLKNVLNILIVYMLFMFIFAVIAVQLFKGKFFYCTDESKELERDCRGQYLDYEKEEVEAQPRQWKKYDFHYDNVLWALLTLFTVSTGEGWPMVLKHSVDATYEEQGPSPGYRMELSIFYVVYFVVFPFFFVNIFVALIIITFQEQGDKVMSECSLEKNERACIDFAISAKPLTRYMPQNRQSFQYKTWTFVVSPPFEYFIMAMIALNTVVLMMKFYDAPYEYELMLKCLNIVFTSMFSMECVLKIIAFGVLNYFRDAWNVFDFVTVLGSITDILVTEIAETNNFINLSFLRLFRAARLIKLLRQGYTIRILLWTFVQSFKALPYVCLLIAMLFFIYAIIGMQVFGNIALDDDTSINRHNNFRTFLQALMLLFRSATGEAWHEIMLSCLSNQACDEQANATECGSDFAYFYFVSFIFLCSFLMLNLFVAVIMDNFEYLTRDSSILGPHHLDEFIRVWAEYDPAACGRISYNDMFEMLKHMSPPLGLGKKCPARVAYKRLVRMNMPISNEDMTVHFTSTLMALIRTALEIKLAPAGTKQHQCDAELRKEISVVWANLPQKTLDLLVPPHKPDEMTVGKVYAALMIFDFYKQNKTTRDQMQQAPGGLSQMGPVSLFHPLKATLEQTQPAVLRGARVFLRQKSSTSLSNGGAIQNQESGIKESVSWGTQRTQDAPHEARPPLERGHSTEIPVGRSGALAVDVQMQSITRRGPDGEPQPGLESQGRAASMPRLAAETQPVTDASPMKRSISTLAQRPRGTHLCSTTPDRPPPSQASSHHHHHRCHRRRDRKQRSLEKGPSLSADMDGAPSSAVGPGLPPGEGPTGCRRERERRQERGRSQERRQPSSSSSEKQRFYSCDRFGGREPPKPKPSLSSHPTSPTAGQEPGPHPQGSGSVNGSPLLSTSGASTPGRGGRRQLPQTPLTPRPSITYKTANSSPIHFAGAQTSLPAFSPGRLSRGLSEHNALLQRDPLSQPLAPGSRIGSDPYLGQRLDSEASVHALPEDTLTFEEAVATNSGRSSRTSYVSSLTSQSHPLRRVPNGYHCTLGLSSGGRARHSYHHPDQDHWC
T11 sequence (Q02410 whole entry): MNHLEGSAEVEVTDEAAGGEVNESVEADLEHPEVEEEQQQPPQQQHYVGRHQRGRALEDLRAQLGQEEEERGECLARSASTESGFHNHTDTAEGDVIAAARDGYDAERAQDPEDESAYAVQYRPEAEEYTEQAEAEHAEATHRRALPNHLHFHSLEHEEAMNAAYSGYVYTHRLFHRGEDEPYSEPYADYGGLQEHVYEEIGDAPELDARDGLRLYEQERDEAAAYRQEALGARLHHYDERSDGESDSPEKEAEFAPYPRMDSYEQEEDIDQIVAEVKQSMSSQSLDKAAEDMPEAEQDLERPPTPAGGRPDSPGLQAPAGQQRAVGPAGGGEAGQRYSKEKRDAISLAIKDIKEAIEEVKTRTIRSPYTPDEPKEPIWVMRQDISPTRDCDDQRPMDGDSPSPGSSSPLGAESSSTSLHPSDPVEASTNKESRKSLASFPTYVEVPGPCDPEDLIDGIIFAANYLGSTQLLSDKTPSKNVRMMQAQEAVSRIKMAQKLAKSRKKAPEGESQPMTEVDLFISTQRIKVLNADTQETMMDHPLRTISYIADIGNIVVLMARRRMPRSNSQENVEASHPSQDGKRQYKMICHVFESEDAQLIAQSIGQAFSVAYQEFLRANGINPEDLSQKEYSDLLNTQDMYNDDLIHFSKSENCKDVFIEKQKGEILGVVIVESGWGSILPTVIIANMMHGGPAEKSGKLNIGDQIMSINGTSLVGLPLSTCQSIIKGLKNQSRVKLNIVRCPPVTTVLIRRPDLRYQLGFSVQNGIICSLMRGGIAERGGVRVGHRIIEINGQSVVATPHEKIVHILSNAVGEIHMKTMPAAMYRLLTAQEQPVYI
Assay [29] has as its target 26S proteasome non-ATPase regulatory subunit 14 (Homo sapiens, UniProt O00487). In words: inhibition of proteasome subunit RPN11 – biochemical, fluorescence polarization, uHTS hits, confirmation (AID 602368). The class given is functional.
For assay [30], the target named is T9, Dual specificity protein phosphatase 6. In words: inhibition of rat DUSP6 enzyme activity – biochemical, in vitro, primary screen (AID 425).
Assay [31] addresses T11, Voltage-gated N-type calcium channel alpha-1B subunit/Amyloid beta A4 precursor protein-binding family A member 1. The class given is protein assay. The source holds these as a separate data set.
The next assay deals with NS3 (Hepatitis C virus, UniProt A3EZJ3). As to the kind of experiment: PubChem AID 2173. More on the design: species or system Hepacivirus hominis.

The structures appear in SMILES notation. Activity calls are given as the source filed them. Where only a bound is given, the exact number is not on record here.

T8 sequence (P51452 whole entry): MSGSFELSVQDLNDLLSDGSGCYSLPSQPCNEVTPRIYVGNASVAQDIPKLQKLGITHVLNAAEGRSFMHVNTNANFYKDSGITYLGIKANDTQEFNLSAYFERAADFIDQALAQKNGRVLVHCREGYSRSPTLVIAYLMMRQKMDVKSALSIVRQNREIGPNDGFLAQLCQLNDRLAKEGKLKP
T1 sequence (P34972 whole entry): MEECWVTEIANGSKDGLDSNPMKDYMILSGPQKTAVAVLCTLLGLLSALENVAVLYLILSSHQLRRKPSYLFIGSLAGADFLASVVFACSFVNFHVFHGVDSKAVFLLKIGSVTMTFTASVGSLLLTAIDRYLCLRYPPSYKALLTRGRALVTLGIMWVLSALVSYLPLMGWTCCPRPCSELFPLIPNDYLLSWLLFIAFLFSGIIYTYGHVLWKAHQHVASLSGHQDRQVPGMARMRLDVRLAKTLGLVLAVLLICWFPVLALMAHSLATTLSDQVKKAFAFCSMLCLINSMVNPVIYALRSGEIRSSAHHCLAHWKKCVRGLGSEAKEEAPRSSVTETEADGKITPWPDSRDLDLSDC
T2 sequence (P21554 whole entry): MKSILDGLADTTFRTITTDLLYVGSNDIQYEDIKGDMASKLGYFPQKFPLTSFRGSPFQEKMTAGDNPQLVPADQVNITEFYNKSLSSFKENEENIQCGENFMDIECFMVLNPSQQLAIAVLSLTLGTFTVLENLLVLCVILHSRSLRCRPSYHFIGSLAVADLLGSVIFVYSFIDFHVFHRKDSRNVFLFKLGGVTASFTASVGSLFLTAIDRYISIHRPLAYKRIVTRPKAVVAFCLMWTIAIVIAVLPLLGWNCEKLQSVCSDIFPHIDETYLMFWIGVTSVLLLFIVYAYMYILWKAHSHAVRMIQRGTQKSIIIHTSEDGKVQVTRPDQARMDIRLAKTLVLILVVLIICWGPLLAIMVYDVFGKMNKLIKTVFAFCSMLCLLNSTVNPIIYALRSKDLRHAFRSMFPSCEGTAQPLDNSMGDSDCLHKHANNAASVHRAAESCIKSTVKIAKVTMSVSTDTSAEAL

Broadly, the EC50 is the concentration at which the effect is half-maximal. Regarding `Cc1ccc(-n2cc3c(-c4ccc(Cl)cc4)nnc(C)c3n2)cc1`, the EC50 (at Cannabinoid receptor 2 [1]; at Cannabinoid receptor 1 [2]; in assay [7]) was > 32 µM (inactive) in each case. In addition, the IC50 in assay [3] is > 32 µM (inactive); in assay [4] it was 6.13 µM (active); at Cannabinoid receptor 1 [5], 0.87 µM (active); at Cannabinoid receptor 2 [6] it was 29.8 µM (inactive).

As for `c1ccc(CSc2nnc(-c3ccncc3)n2Cc2ccco2)cc1`, in [8], the EC50 is > 20 µM (inactive).

As for `C=CCN1C(=O)/C(=C/c2ccc(N3CCOCC3)o2)C(=O)NC1=S`, the 50% effective concentration (EC50) at Troponin, cardiac muscle is 5.95 µM (active).

Consider `COc1ccc(S(=O)(=O)N(CC(=O)Nc2ccc(S(=O)(=O)N3CCOCC3)cc2)c2ccccc2)cc1`, for which the EC50 on Mu-type opioid receptor was > 32 µM (inactive); at Beta-galactosidase, > 31.5 µM (inactive); in assay [9] it was > 32 µM (inactive). Also, the IC50 was > 32 µM (inactive) in [10], 2.82 µM (active) in assay [11] and 4.04 µM in assay [12].

As for `CCOC(=O)c1sc2nc3c(SCCC(=O)O)cc(C(=O)c4cc(OC)ccc4O)cn3c(=O)c2c1C`, the IC50 in assay [13] was 7.26 µM (active); in assay [14] it was 1.04 µM (active); in assay [15], 5.54 µM (active); in assay [16] it was 2.02 µM (active); in [17] it was < 1.23 µM (inactive); in assay [18] it was 4.87 µM (active). Also, the IC50 in [19] is 59.5 µM (active); in [20], 1.68 µM (active); in assay [21], 1.24 µM (active); in [22], 0.48 µM (active); in assay [23], 1.29 µM (active); on Prothrombin, 72.5 µM (active). In addition, the IC50 in [24] was < 0.195 µM (active); in assay [25], > 66.6 µM (inactive); in [26] it was 0.209 µM (active); in [27] it was 50 µM (inactive); in [28], 36.2 µM (active); in [29], 8.13 µM (active). Also, the IC50 in [30] is 101 µM (not active); in assay [31] it was 8.15 µM (active); at NS3 it was 2.58 µM (active).

These data come from ChEMBL document CHEMBL1201862, “PubChem BioAssay data set” (2004).
